These results are taken from paper PMC9147192, “Small Molecule Arranged Thermal Proximity Coaggregation (smarTPCA)—A Novel Approach to Characterize Protein–Protein Interactions in Living Cells by Similar Isothermal Dose–Responses” (International Journal of Molecular Sciences, 2022).

What all share (assay): TPP-CCR in living HL-60 cells
Format in all cases: cell-based

For one experiment, the target named is T1, MIA3 (Homo sapiens, UniProt Q5JRA6).
T1 construct: endogenous in cells; host or cells: HL-60 (ATCC CCL-240)
From the text:
(§1) Therefore, we performed TPP with compound concentration range (TPP-CCR) experiments according to published procedures. In brief, after preparing tryptic peptides from the non-denatured protein fractions (used for immunoblotting in the previous sections) applying the SP3 method, the peptides were labeled using TMT10plex, coding for inhibitor concentration, and the samples belonging to a TMT set were combined, offline high-pH fractionated, and analyzed by MS.
(§2) HL-60 cells were expanded as described above for CETSA and TPP-TR to 1.25 million cells per milliliter. […] A number of 2.5 million cells in 2 mL of medium were added to each tube and incubated (1 h, 37 °C). After centrifugation (300 rcf, 3 min, r.t.) and removing all of the supernating culture medium, the cells were washed once with 2 mL and once with 0.5 mL PBS (r.t.) by gently resuspending the cells, followed by centrifugation (300 rcf, 3 min, r.t.) and the complete removal of the supernatants.
(§3) After transferring the cells from the 2 mL Eppendorf tubes into correspondingly labeled PCR tubes (tube strips) using 100 µL of ice-cold PBS supplemented with protease inhibitors for resuspending the cells, the samples were further processed as described above for CETSA and TPP-TR, however, by applying a single treatment temperature of 51 °C.
(§4) For each sample set comprising ten compound concentration range samples, a same volume of the cell extracts containing the fraction of soluble, non-denatured proteins, corresponding to an average of 5 µg total protein, was used for further analysis. The calculated volume was respectively transferred into PCR tubes of a tube strip and supplemented with SDS sample buffer without DTT and bromophenol blue (final concentrations: 7.5% glycerol, 3% SDS, 37.5 mM Tris/HCl pH 7.0) and ddH2O to a final volume of 10 µL, respectively. Reduction and alkylation were performed by addition of 2.5 µL 100 mM dithiothreitol (DTT; incubation: 20 min, 56 °C, 1000 rpm in an Eppendorf ThermoMixer C, covering the tubes with aluminum foil to minimize condensation in the lids) and 3.33 µL 300 mM iodoacetamide (IAA; incubation: 15 min, r.t., in the dark without shaking), as well as 2.5 µL 100 mM DTT (incubation: 15 min, r.t., without shaking; quenching of excess of IAA). […] The beads were collected and washed (3× 200 µL 80% ethanol p.a. in HPLC-MS grade water, 1 × 200 µL acetonitrile (ACN; HPLC gradient grade)) using a device for handling of magnetic particles [patent US20100200405A1]. The ACN of the last washing step was completely removed by aspiration without letting the beads dry out.
(§5) Tryptic digest was performed on-bead by resuspending (use of an ultrasound bath may be required) the beads in 20 µL 50 mM TEAB in HPLC-MS grade water containing 0.1 µg Trypsin/Lys-C mix and 16.5 h incubation at 37 °C and 1000 rpm (Eppendorf ThermoMixer C, covering the tubes with aluminum foil to minimize condensation in the lids). Tryptic fragmentation of proteins was optimized by addition of another 0.1 µg of Trypsin/Lys-C mix in 2 µL 50 mM TEAB and 4 h incubation at 37 °C and 1000 rpm. After centrifugation for about 1 min in a table top centrifuge and magnetic concentration and retention of the beads at the inner tube wall, the supernatants containing the peptides were transferred into new PCR tubes (of tube strips) and were stored at −80 °C. The beads were discarded.
(§6) Half of the peptide samples (11 µL containing about 2.5 µg peptides) were transferred into new PCR tubes (of tube strips) and allowed to equilibrate to r.t. TMT labeling reagents were reconstituted as described for the TPP-TR samples, and 1 µL each was added to the reconstituted peptides according to the following scheme and homogenized immediately by aspiration and dispensing:
(§7) Peptide separation was performed as described above for the analysis of TPP-TR samples. […]

Another experiment addresses T2, LRRC59 (Homo sapiens, UniProt Q96AG4).
T2 construct: endogenous in cells; host or cells: HL-60 (ATCC CCL-240)
T2 sequence (Q96AG4 1-307): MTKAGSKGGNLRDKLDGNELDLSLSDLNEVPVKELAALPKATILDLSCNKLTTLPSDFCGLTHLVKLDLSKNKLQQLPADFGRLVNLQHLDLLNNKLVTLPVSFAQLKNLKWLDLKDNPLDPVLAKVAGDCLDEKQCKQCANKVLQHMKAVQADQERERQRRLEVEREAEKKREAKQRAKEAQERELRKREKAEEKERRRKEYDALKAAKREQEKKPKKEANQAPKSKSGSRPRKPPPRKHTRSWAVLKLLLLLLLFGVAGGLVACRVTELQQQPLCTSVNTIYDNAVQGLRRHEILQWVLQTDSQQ
Text: as §1, §2, §3, §4, §5, §6, §7

In a further experiment the target is T3, NOP2 (Homo sapiens, UniProt P46087).
T3 construct: dose–responses (mean over replicates), derived from TPP-CCR experiments in living cells; endogenous in cells; host or cells: HL-60 cells (ATCC No. CCL-240)
T3 sequence (P46087 1-812): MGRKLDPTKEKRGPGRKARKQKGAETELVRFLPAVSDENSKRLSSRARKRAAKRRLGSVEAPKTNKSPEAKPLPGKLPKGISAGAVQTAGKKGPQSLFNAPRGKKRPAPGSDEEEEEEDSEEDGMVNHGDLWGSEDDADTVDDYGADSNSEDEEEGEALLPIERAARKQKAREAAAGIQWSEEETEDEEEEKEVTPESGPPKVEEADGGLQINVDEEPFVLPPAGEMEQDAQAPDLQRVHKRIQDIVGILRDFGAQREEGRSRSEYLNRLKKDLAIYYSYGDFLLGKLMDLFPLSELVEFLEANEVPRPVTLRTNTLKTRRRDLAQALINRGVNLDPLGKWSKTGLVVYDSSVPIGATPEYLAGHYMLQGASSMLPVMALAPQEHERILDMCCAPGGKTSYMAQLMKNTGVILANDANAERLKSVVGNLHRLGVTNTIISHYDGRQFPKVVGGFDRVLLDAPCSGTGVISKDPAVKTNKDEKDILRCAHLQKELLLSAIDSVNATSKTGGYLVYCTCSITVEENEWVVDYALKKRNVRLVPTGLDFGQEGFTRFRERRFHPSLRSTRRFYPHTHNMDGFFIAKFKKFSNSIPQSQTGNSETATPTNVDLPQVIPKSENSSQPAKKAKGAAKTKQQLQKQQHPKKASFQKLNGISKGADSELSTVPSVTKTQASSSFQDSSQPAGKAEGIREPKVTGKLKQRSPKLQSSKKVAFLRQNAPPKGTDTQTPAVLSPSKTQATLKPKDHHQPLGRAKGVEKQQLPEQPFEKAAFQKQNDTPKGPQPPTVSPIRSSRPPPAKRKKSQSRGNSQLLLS
Text: as §1, §2, §3, §4, §5, §6, §7

Setting [1] is: living HL-60 cells, […] °C, TMT-MS.

The Hill slope is a measure of the steepness of the concentration-response curve.

T1 sequence (Q5JRA6 23-1907): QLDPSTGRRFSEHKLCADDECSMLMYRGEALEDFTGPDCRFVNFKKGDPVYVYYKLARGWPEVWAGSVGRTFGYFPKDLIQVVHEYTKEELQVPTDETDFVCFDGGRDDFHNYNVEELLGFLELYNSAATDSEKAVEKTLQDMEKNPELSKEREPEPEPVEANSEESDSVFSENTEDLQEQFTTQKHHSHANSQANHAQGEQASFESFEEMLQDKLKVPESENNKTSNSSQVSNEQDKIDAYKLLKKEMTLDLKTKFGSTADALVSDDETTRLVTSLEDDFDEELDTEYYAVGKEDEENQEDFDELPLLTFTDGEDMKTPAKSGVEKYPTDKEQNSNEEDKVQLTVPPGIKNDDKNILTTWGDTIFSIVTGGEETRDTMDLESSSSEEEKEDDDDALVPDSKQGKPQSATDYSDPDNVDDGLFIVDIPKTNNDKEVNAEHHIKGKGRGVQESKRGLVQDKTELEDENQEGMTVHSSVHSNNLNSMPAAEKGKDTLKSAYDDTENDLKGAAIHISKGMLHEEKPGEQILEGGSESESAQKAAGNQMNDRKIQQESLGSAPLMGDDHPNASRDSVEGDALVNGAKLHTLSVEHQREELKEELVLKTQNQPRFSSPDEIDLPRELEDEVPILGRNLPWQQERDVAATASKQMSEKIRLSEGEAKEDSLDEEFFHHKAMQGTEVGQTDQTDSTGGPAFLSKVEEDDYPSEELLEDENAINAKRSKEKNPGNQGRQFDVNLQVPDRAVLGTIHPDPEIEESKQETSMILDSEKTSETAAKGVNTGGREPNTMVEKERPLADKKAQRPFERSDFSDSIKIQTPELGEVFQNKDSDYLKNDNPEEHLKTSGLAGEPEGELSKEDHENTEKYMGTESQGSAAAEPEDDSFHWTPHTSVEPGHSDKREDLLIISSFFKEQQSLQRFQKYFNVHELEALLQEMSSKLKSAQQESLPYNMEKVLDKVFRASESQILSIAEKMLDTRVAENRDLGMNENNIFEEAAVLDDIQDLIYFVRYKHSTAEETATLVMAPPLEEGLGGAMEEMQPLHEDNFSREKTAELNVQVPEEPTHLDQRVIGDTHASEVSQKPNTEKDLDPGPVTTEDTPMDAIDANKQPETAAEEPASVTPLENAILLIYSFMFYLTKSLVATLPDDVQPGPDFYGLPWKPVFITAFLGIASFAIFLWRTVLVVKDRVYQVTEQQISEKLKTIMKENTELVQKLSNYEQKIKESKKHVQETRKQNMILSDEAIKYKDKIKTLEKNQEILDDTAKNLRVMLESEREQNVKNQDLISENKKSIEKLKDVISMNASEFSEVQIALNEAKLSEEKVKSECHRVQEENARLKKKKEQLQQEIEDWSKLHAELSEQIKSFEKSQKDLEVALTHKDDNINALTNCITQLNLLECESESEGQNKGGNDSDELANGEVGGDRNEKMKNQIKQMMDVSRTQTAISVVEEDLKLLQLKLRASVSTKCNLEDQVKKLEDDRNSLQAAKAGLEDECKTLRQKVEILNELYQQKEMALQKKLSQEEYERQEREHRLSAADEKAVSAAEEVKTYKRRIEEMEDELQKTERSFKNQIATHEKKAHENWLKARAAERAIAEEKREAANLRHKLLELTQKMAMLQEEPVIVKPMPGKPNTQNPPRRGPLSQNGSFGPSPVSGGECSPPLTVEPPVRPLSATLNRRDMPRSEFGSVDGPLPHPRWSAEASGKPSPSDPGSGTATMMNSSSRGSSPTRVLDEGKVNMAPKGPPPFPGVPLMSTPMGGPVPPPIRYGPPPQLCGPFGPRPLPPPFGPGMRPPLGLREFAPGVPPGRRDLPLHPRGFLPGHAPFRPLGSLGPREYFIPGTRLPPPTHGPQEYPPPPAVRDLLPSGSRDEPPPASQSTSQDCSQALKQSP

Regarding `Cc1cnc(Nc2ccc(F)cc2Cl)nc1-c1c[nH]c(C(=O)N[C@H](CO)c2cccc(Cl)c2)c1` [ERK 11e], the Hill slope at MIA3 (TPP-CCR, living cells, MIA3) is recorded as 0.98; at LRRC59 (TPP-CCR, living cells, LRRC59), 0.59; on NOP2 (TPP-CCR, living cells, NOP2), 0.29. For the same compound, the “Hill slope (MIA3)” value at MIA3 (setting [1]) is reported as 0.98. The EC50 at MIA3 (living HL-60 cells, […] °C, TMT-MS, read-out: pEC50 (MIA3) (converted)) is 3390 nM; on LRRC59 (living HL-60 cells, […] °C, TMT-MS, read-out: pEC50 (LRRC59) (converted)) it was 1480 nM; on NOP2 (living HL-60 cells, […] °C, TMT-MS, read-out: pEC50 (NOP2) (converted)), 105 nM. For the same compound, on LRRC59 (setting [1]), the “Hill slope (LRRC59)” value amounted to 0.59. Moreover, the “Hill slope (NOP2)” value at NOP2 (setting [1]) amounted to 0.29.
